Assay results from US11866466B2, “Tumor homing and cell penetrating peptide-immuno-oncology agent complexes and methods of use thereof” (BLAZE BIOSCIENCE, INC., priority 2017, dated 2024).
{ppp} = triphosphate on the strand's 5' end

Tests used:
[1] = system: STING; settings: from Lioux et al.; cited from earlier work
[2] = system: IFN pathway (JAK/STAT/ISGF3 pathway and/or IRF3 pathway) in SEAP reporter cells; RIG-I; assay: B16-Blue IFN-alpha/beta SEAP reporter cell assay; format: cell-based, murine; settings: for luminescence signal (RLU) from activating the IFN pathway: 12 pmol or 120 pmol, 24, 48, or 72 hours, no transfection reagent (FIG. 19); for RLU signal in the presence of transfection reagent: with Lipofectamine transfection reagent (FIG. 22)
[3] = system: A20 lymphoma cells; assay: Intratumoral microinjection in A20 lymphoma tumors, CC3 immunostaining and radial plot analysis; format: in vivo, mouse; settings: for CC3 staining (apoptosis) at injection site: 24 hours after administration, complex at 1 μg and 2 μg doses (FIG. 81)
[4] = system: A20 lymphoma cells; assay: Intratumoral microinjection in A20 tumors, IFNb mRNA in situ hybridization (RNAscope); format: in vivo, mouse; settings: 4 hours after administration; complex at 1 ug or 2 ug (FIG. 84, FIG. 85)
[5] = system: CT26 colon carcinoma cells; assay: Intratumoral microinjection in CT26 flank tumors, cleaved caspase 3 (CC3) immunostaining; format: in vivo, mouse
[6] = system: Mo7e cells; assay: Mo7e proliferation assay (PrestoBlue); format: cell-based, human; settings: 3 days incubation (FIG. 29)
Method: (§1) This example describes in vitro proliferation of cells treated with peptide-IL-15 agent complexes using cytokine dependent CTLL2 (mouse cytotoxic T lymphocyte cell line), Mo7e (human acute megakaryoblastic leukemia cell line) and human primary CD8+ T cells. All assays were performed in the 96 well plate format in clear bottom black walled tissue culture plates. Peptide-I/O complexes comprising SEQ ID NO: 568, peptide-I/O complexes comprising an IL-15 agent, and peptide-I/O complexes comprising a His-tagged RLI control proteins (SEQ ID NO: 1342) were diluted in culture media without cytokine supplement. […]
CTLL2 and Mo7e cells were maintained as cell cultures in media containing either IL-2 (CTLL2) or IL-3 (Mo7e). Viability and cell concentration were analyzed using a Viacell cell counter. […]
After the end of the incubation period, PrestoBlue live cell assay reagent (Invitrogen) was added to each well (10 μL per 100 μL well). […] Fluorescence was quantified using an Envision (Perkin Elmer 2104) plate reader. Data was graphed and analyzed in Excel, GraphPad Prism 7, or the AAT Bioquest graphing and EC50 calculator https://www.aatbio.com/tools/ec50-calculator. […]
After the end of the incubation period, PrestoBlue live cell assay reagent (Invitrogen) was added to each well per manufacture instructions. […] PrestoBlue fluorescence was quantified using an Envision (Perkin Elmer 2104) plate reader.

[7] = system: CD8+ primary human T cells; assay: CD8+ primary human T cell proliferation assay (PrestoBlue); format: cell-based; settings: FIG. 30A
Method: as §1
(§2) CD8+ selected primary human T-cells were received as frozen cells and stored in the LN2 vapor phase until used. […] 15 mL of room temperature 10% FBS RPMI media was added to the cell suspension; the cells were then pelleted, resuspended in 10% FBS media, and counted using the Viacell. […]
(§3) After the end of the incubation period, PrestoBlue live cell assay reagent (Invitrogen) was added to each well (10 μL per 100 μL well). […] Fluorescence was quantified using an Envision (Perkin Elmer 2104) plate reader. Data was graphed and analyzed in Excel, GraphPad Prism 7, or the AAT Bioquest graphing and EC50 calculator https://www.aatbio.com/tools/ec50-calculator.

[8] = system: PHA induced T cell blasts; assay: PHA induced T cell blast proliferation assay (PrestoBlue); format: cell-based, human; settings: FIG. 30B; same CD8+ T cell donor
Method: as §1, §2, §3

[9] = Tolerability of intraperitoneal peptide-IL-15 agent complexes in CT26 tumor mice; format: in vivo, mouse; settings: 1-12 ug in 100 μl, 4 days a week intraperitoneally, 7 doses
Method: This example describes peptide-IL-15 agent complex accumulation in tumors. Peptide-IL-15 agent complexes such as this in example 18 were expressed and purified. Mice were dosed with 0.2 million CT26 cells, which were allowed to grow for 5 days, at which time tumors were palpable. Mice were dosed with 1-12 ug of SEQ ID NO: 1317, SEQ ID NO: 1321, an RLI, or no agent in 100 μl 4 days a week intraperitoneally. […] After 7 doses, the animals were sacrificed and the tumor tissue was harvested and fixed.

Compound: 3′,2′c-AIMP [Analog 23]
- activity relative to 2′,3′-cGAMP [1]: equivalent in activity to 2′,3′-cGAMP

Compound: 5′ppp dsRNA: SEQ ID NO: 1424 (with triphosphate on the 5′ end) and SEQ ID NO: 1425 (no terminal phosphates) complexed together (chain 1 GCAUGCGACCUCUGUUUGA; chain 2 UCAAACAGAGGUCGCAUGC; chain 1: RNA, 5' {ppp}, backbone and methylation of C not given here; chain 2: RNA, backbone and methylation of C not given here)
- luminescence signal (RLU) from activating the IFN pathway [2]: Very little signal
- RLU signal in the presence of transfection reagent [2]: high signaling

Compound: 5′ppp hpRNA: I/O comprising a dsRNA SEQ ID NO: 1371 with a 5′ppp, which forms a hairpin structure (GCAUGCGACCUCUGUUUGAUCAAACAGAGGUCGCAUGC; RNA, 5' {ppp}, backbone and methylation of C not given here; hairpin RNA)
- luminescence signal (RLUs) with transfection reagent ([2]; 16.2 pmole, 24 hours, with Lipofectamine (FIG. 80)): High signaling
- fraction of cells positive for CC3 staining versus distance from injection site (radial plot) ([3]; 24 hour timepoint, 7-8 tumors per test article, complex at 1 μg and 2 μg (FIG. 82)): very little increase in CC3 positive cells
- CC3 staining (apoptosis) at injection site [3]: do not show similarly strong induction of apoptosis
- IFNb mRNA staining at injection site [4]: significant IFNb mRNA staining

Compound: Nc1ncnc2c1ncn2C1OC2COP(=O)(O)OC3C(COP(=O)(O)OC2C1O)OC(n1cnc2c(=O)[nH]cnc21)C3O (stereo not shown) [Analog 9, 3′,3′c-AIMP]
- activity relative to 2′,3′-cGAMP [1]: equivalent in activity to 2′,3′-cGAMP

Compound: Nc1ncnc2c1ncn2C1OC2COP(=O)(O)O[C@@H]3C(COP(=O)(O)O[C@@H]1[C@@H]2O)OC(n1cnc2c(=O)[nH]cnc21)[C@@H]3O (stereo partly shown) [Analog 10, 2′,3′c-AIMP]
- activity relative to 2′,3′-cGAMP [1]: equivalent in activity to 2′,3′-cGAMP

Compound: Nc1ncnc2c1ncn2C1C[C@@H]2OP(=O)(O)OCC3OC(n4cnc5c(=O)[nH]cnc54)C[C@@H]3OP(=O)(O)OCC2O1 (stereo partly shown) [Analog 51, c-(dAMP-dIMP)]
- activity relative to 2′,3′-cGAMP [1]: equivalent in activity to 2′,3′-cGAMP

Compound: Nc1ncnc2c1ncn2C1OC2COP(=O)(O)O[C@@H]3C(COP(=O)(O)O[C@H]2[C@H]1F)OC(n1cnc2c(=O)[nH]cnc21)[C@@H]3F (stereo partly shown) [Analog 52, c-(2′FdAMP-2′FdIMP)]
- activity relative to 2′,3′-cGAMP [1]: more potent than 2′,3′-cGAMP

Compound: Nc1ncnc2c1ncn2C1OC2COP(=O)(O)OC3CC(n4cnc5c(=O)[nH]cnc54)OC3COP(=O)(O)OC2C1F (stereo not shown) [Analog 54, c-(2′FdAMP-dIMP)]
- activity relative to 2′,3′-cGAMP [1]: equivalent in activity to 2′,3′-cGAMP

Compound: Nc1ncnc2c1ncn2C1C[C@@H]2OP(=O)(O)OCC3OC(n4cnc5c(=O)[nH]cnc54)[C@H](F)[C@@H]3OP(=O)(O)OCC2O1 (stereo partly shown) [Analog 55, c-(dAMP-2′FdIMP)]
- activity relative to 2′,3′-cGAMP [1]: equivalent in activity to 2′,3′-cGAMP

Compound: Nc1ncnc2c1ncn2C1OC2COP(=O)(S)OC3CC(n4cnc5c(=O)[nH]cnc54)OC3COP(=O)(S)OC2C1F (stereo not shown) [Analog 56, c-[2′FdAM(PS)-dIM(PS)]]
- activity relative to 2′,3′-cGAMP [1]: more potent than 2′,3′-cGAMP

Compound: Cc1ccc2c(=O)c3cccc(CC(=O)O)c3oc2c1C [DMXAA]
- CC3 staining (apoptosis) at injection site [3]: do not show similarly strong induction of apoptosis

Compound: CCN(CC)CCCC(C)Nc1ccnc2cc(Cl)ccc12 (stereo not shown) [chloroquine]
- CC3 staining (apoptosis) at injection site ([5]; 4 hours post-treatment (FIG. 16)): did not have a significant region of CC3 staining
- CC3 staining (apoptosis) at injection site ([5]; 24 h, other animals tested): One animal showed CC3 staining

Compound: SEQ ID NO: 1342: His-tagged RLI protein comprising SEQ ID NO: 1169, SEQ ID NO: 1176 (IL-15Ra sushi+) and SEQ ID NO: 1177 (IL-15)
- cytokine activity, proliferation [6]: stimulate Mo7e cells
- cytokine activity, proliferation [7]: stimulate human CD8+ T cells
- cytokine activity, proliferation [8]: stimulate human CD8+ T cells
- tolerability of treatments [9]: well tolerated

Compound: c-[2′FdAMP(S)-2′FdIMP(S)] [Analog 53]
- activity relative to 2′,3′-cGAMP [1]: more potent than 2′,3′-cGAMP

Compound: cAIM(PS)2 [Analog 13]
- activity relative to 2′,3′-cGAMP [1]: more potent than 2′,3′-cGAMP

Compound: dsRNA: SEQ ID NO: 1424 and SEQ ID NO: 1425 (no terminal phosphates on either strand) complexed together (chain 1 GCAUGCGACCUCUGUUUGA; chain 2 UCAAACAGAGGUCGCAUGC; RNA, backbone and methylation of C not given here; further chemistry not fully specified)
- luminescence signal (RLU) from activating the IFN pathway [2]: Very little signal
- RLU signal in the presence of transfection reagent [2]: much lower signaling
